Test results as given in patent US6815208B2, “Chemical treatment for hydrostatic test” (Champion Technologies, Inc., priority 2001, dated 2004).
Where two headings read alike, the source gives them in different places.

What was measured:
[1] = test system: Sulfate Reducing Bacteria (SRB); experiment: Evaluation of biocides in pH adjusted medium containing SRB, with coupons; assay type: cell-based; details: for Log of Bacterial Cells/ml: SRB medium
Protocol: (§1) In these experiments, SRB or FAAPB cultures were treated with various concentrations of biocides, after raising the pH to 9.8-10.00. The bacterial growth in the treated samples was estimated by the serial dilution method. The visual appearance of coupons in treated and untreated samples was recorded. An aldehyde and phosphonium quat were used for biocides.

SRB [2] = experiment: Time kill study of special blends, SRB culture; assay type: cell-based; details: 50 PPM (pH ~7)
Protocol: (§2) More than thirty special blends containing NaOH, oxygen scavenger and scale inhibitor were made. Time kill studies were conducted to evaluate the effect of these special blends on bacterial growth. For the time kill studies cultures of SRB and anaerobic bacteria as well as filtered Galveston seawater were used. Galveston seawater was filtered through 50 μm filter. The time kill studies were basically the same as in the raised pH studies described earlier. The only difference was that in these studies, the pH was raised by the special blends and natural seawater was included in addition to bacterial cultures. Usually, 1,500 to 3,000 PPM of the special blends were used to raise the pH to 9.6-9.8. In some experiments, the seawater was treated only with NaOH or oxygen scavenger for comparison purposes. A piece of mild carbon steel coupon (1″×0.3″) was inserted into the treated water to monitor MIC and corrosion in all of the experiments.
(§3) The bacterial growth was monitored for 20 days. The monitoring of coupons in the treated samples continued for weeks to months. The products that inhibited the bacterial growth and kept the coupons clean were selected. These selected products were re-evaluated using the bacterial cultures and the filtered seawater.

anaerobic bacteria = experiment: Time kill study of special blends, anaerobic bacteria culture; assay type: cell-based; details: 50 PPM (pH ~7)
Protocol: as §2, §3

SRB [3] = experiment: Effect of special blends on SRB growth in natural (Galveston) seawater; assay type: cell-based; details: 25 PPM
Protocol: as §2, §3

[4] = Deactivation of biocides / biocide residual in Galveston seawater; assay type: physicochemical
Protocol: The pH of fresh water or seawater was adjusted and desired concentrations of biocides were added. The concentration of biocides in the water was measured periodically. Such monitoring provided information on the deactivation rate of biocides. To monitor the concentration of THPS and glutaraldehyde a LaMotte kit and a Glutatect kit were used, respectively. The LaMotte Company supplies the LaMotte kit. Alden Scientific manufactures the Glutatect kit. After the complete deactivation of biocide, the water was tested for aquatic toxicity.
Galveston seawater was treated with NaOH solution and with blends of NaOH and chemicals separately to raise the pH to 9-10.25. 12-100 PPM of 50% glutaraldehyde was added to each aliquot of pH-adjusted water. The treated water was left at room temperature. The concentration of glutaraldehyde was monitored for 9-20 days, using Glutatect kit. In another experiment, 100 PPM of 75% THPS was added to Galveston seawater following pH adjustment with NaOH. THPS concentration was monitored using a LaMotte Kit.

[5] = test system: sulfate reducting bacteria (SRB); experiment: Time kill study of SRB cultures at raised pH (NaOH), serial dilution; assay type: cell-based; details: 200 PPM, combined with high pH
Protocol: Cultures (in API media) of sulfate reducting bacteria (SRB) and facultative anaerobic acid producing bacteria (FAAPB) were treated separately with dilute NaOH solution to raise the pH of the culture to 9.8-10.00. The level of bacterial growth was estimated by the serial dilution method. In some experiments oxygen scavenger (ammonium bisulfite) was also included to see if it has any effect on bacterial growth. No coupons were used in these experiments.
as §1

M. Bahia = experiment: Static renewal toxicity test of treated seawater; assay type: in vivo; details: 150 PPM of THPS
Protocol: (§4) Three of the most promising special blends were tested 249C, 246C, and 283C. Galveston seawater was treated separately with 249C, 246C and 283C at 3,000 PPM, 2,000 PPM and 1,450 PPM respectively. The treated water was then subjected to a static renewal toxicity test (using Mysid and Menidid species). The EPA requires this toxicity test for water discharged into the Gulf of Mexico.

M. Beryllina = experiment: Static renewal toxicity test of treated seawater; assay type: in vivo; details: 150 PPM of THPS
Protocol: as §4

[6] = anaerobic condition, cited from earlier work
[7] = Sea Water without pH adjustment, 100 PPM added

Row | Compound | Log of Bacterial Cells/ml, SRB (SRB [2]) | Log of Bacterial Cells/ml, Anaerobic (anaerobic bacteria) | Log of Bacterial Cells/ml (SRB [3]) | PPM Biocide after 9 Days ([4]; Sea Water pH 10, 100 PPM added) | PPM Biocide at 0 Hr ([4]; Sea Water pH 10, 100 PPM added) | PPM Biocide, 2 Days ([4]; Sea Water pH 10, 100 PPM added) | PPM Biocide after 9 Days [4, 7] | PPM Biocide at 0 Hr [4, 7] | PPM Biocide, 2 Days [4, 7] | other results
1 | O=CCCCC=O [Glutaraldehyde, glutaraldehyde] | 0-1 Log of Bacterial Cells/ml | ≧3 Log of Bacterial Cells/ml | 1 Log of Bacterial Cells/ml | 10-20 PPM | ˜40 PPM | 20-40 PPM | 20-40 PPM | ˜40 PPM | 20-40 PPM | Log of Bacterial Cells/ml ([1]; Concentration 12.5): 0 Log of Bacterial Cells/ml; Log of Bacterial Cells/ml ([1]; Concentration 25): 0-1 Log of Bacterial Cells/ml; Log of Bacterial Cells/ml ([1]; Concentration 75): 0 Log of Bacterial Cells/ml; Log of Bacterial Cells/ml ([1]; Concentration 150): 0 Log of Bacterial Cells/ml; concentration sufficient to inhibit planktonic as well as sessile bacterial growths ([1]; water with pH adjusted to 10): 10-12 PPM; biocide residual ([4]; seawater treated with special blends, after 5-10 days): below 5 PPM
2 | N.O=S(O)O [NH4HSO3, ammonium bisulfite] |  |  |  |  |  |  |  |  |  | Log of SRB Cells/mL ([5]; Experiment 1 (7 Days)): 2 Log of SRB Cells/mL; Log of SRB Cells/mL ([5]; Experiment 2 (7 Days)): 2 Log of SRB Cells/mL
3 | tetrakis hydroxymethyl phosphonium sulfate [THPS] | 0-1 Log of Bacterial Cells/ml | ≧3 Log of Bacterial Cells/ml | 1 Log of Bacterial Cells/ml | 14 PPM | 136 PPM | 58 PPM | 68 PPM | 132 PPM | 104 PPM | Log of Bacterial Cells/ml ([1]; Concentration 18.75): 0-3 Log of Bacterial Cells/ml; Log of Bacterial Cells/ml ([1]; Concentration 37.5): 0-1 Log of Bacterial Cells/ml; Log of Bacterial Cells/ml ([1]; Concentration 112.5): 0 Log of Bacterial Cells/ml; LOEC (M. Bahia): <9.6/9.6%; NOEC (M. Bahia): <9.6/9.6%; LOEC (M. Beryllina): 24.6%; NOEC (M. Beryllina): 12.0%; half life ([6]; pH 7): 72 days; half life ([6]; pH 9): 7 days
